Results taken from ChEMBL document CHEMBL5329217, “Hesperidin Methyl Chalcone reduces extracellular Aβ(25-35) peptide aggregation and fibrillation and also protects Neuro 2a cells from Aβ(25-35) induced neuronal dysfunction” (Bioorg Med Chem, 2023).
Calls of active or inactive are those of the source. The rule behind the calls is not given here.

How the values were obtained:
[1] = Antioxidant activity assessed as free radical scavenging activity at 100 ug/ml by DPPH assay relative to control; assay type: functional; conditions: dose 100.0 µg/ml
[2] = biological target: Acetylcholinesterase (Electrophorus electricus) (UniProt O42275); test: Inhibition of electric eel AchE using acetylthiocholine iodide as substrate at 100 ug/ml by Ellman's method relative to control; conditions: dose 100.0 µg/ml
Chain of Acetylcholinesterase (Electrophorus electricus) (O42275 24-633 limits assumed): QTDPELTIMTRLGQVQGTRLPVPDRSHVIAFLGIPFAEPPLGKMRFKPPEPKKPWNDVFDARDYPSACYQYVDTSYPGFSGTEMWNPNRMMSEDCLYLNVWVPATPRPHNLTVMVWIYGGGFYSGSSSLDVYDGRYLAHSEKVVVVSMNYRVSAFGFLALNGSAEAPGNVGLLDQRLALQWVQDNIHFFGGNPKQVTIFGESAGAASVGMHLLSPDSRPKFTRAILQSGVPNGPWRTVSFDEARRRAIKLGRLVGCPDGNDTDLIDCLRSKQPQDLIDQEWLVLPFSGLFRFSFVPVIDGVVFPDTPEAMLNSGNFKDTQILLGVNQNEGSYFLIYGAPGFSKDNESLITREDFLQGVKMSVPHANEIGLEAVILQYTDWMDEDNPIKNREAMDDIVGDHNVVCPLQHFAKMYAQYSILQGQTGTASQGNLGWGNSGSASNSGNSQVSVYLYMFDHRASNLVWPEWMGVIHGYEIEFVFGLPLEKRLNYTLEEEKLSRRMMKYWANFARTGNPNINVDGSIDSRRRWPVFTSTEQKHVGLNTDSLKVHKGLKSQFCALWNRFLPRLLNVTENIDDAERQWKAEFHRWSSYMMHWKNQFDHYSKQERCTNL

[3] = biological target: Amyloid-beta precursor protein (Homo sapiens) (UniProt P05067); test: Disaggregation of amyloid beta (25 to 35) (unknown origin) mature fibrils at 50 ug/ml incubated for 1 to 9 days by ThT-based fluorescence microscopic analysis; conditions: dose 50.0 µg/ml, time 1-9 day
Chain of Amyloid-beta precursor protein (Homo sapiens) (P05067 whole entry): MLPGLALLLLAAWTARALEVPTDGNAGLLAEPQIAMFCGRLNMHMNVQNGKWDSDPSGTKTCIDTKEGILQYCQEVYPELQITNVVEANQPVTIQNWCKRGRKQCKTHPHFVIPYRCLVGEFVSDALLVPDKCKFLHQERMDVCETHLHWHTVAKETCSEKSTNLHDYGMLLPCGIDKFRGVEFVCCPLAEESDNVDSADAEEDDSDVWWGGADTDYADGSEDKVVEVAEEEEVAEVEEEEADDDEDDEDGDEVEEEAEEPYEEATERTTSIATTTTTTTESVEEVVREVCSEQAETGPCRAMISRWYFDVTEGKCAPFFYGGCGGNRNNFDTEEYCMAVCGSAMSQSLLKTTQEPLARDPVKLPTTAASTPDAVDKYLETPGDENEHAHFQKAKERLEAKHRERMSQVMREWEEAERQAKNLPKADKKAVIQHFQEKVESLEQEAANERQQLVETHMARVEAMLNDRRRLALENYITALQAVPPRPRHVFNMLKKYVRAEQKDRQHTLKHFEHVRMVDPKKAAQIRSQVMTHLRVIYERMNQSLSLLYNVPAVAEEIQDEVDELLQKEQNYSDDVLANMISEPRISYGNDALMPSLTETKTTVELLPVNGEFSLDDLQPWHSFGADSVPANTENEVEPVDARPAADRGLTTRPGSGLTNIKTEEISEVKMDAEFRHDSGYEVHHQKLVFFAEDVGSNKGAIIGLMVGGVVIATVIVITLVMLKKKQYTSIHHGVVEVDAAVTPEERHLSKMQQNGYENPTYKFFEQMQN

| Structure (SMILES) | inhibition [1] [%] | inhibition [2] [%] | Activity [3] |
| --- | --- | --- | --- |
| COc1ccc([C@@H]2CC(=O)c3c(O)cc(O[C@@H]4O[C@H](CO[C@@H]5O[C@@H](C)[C@H](O)[C@@H](O)[C@H]5O)[C@@H](O)[C@H](O)[C@H]4O)cc3O2)cc1O | 56 | 94.4 |  |
| COc1ccc2c3c1O[C@H]1C[C@@H](O)C=C[C@@]31CCN(C)C2 |  |  | Active |
